Test results: article PMC9474474, “Determination of pharmacokinetics and tissue distribution of a novel lutetium-labeled PSMA-targeted ligand, ^177Lu-DOTA-PSMA-GUL, in rats by using LC–MS/MS” (Scientific Reports, 2022)

Test: Tissue distribution at steady state after i.v. bolus loading dose plus i.v. infusion in rats
Type: in vivo, Male Sprague–Dawley rats
Conditions: for plasma concentration at steady state: from 1.5 h of i.v. infusion
Method: Tissue distribution of ^175Lu-DOTA-PSMA-GUL was examined under two different steady-state conditions after i.v. infusion of ^175Lu-DOTA-PSMA-GUL. Two target steady-state plasma concentrations (Css) were set as 3000 and 6000 ng/mL. Rats were surgically cannulated with polyethylene tubing (0.58 mm i.d. and 0.96 mm o.d.; Natume, Tokyo, Japan) in the left jugular vein for blood sampling and femoral vein for i.v. injection and infusion. After one day of recovery, ^175Lu-DOTA-PSMA-GUL was administered by i.v. injection as a loading dose (LD) and i.v. infusion for 3 h to achieve the target Css. The i.v. bolus LD and i.v. infusion rates (K0) were calculated by LD = Css,target·Vss and K0 = Css,target·CL, respectively. […] The calculated LD was 0.60 mg/kg and 1.20 mg/kg for the target Css of 3,000 ng/mL and 6,000 ng/mL, respectively. The calculated K0 was 1.82 mg/h/kg and 3.65 mg/h/kg for the target Css of 3,000 ng/mL and 6,000 ng/mL, respectively.
Blood samples were collected at 1.5, 2, 2.5, and 3 h during i.v. infusion, and centrifuged at 3,200 × g for 10 min. At the end of the infusion, rats were sacrificed, and brain, lung, heart, spleen, small intestine, stomach, kidney, liver, prostate, fat, muscle, and testis were excised and immediately homogenized in normal saline. All samples were stored at -70 °C until analysis.
The plasma concentration–time data were analyzed by non-compartmental method using Phoenix® WinNonlin® (Pharsight, NC, USA). The fraction of ^175Lu-DOTA-PSMA-GUL excreted into urine (Furine) and feces (Ffeces) were calculated by the ratio of the total amount of drug excreted in the urine and feces to the fraction of the dose, respectively. The tissue-to-plasma partition coefficients (KP) were calculated as the tissue-to-plasma concentration ratios.

[1] = steady state, average of both infusion levels

In the case of `O=C([O-])CN1CCN(CC(=O)[O-])CCN(CC(=O)[O-])C(Cc2ccc(NC(=S)NCCCC[C@H](NC(=O)N[C@@H](CCC(=O)O)C(=O)O)C(=O)O)cc2)CN(CC(=O)[O-])CC1.[Lu+3]` (stereo partly drawn) [^175Lu-DOTA-PSMA-GUL, Lutetium labeled-1,4,7,10-tetraazacyclododecane-1,4,7,10-tetraacetic acid (DOTA)-PSMA-GUL], the “Concentration, brain” value (CSS,target = 3000 ng/mL) is reported as “BLOQ”, the “Concentration, fat” value (CSS,target = 3000 ng/mL) is reported as 320.68 ± 55.09 ng/g and the “Concentration, heart” value (CSS,target = 3000 ng/mL) is reported as 645.67 ± 204.29 ng/g. For the same compound, the “Concentration, kidney” value (CSS,target = 3000 ng/mL) was 7253.09 ± 665.80 ng/g, the “Concentration, liver” value (CSS,target = 3000 ng/mL) was 949.81 ± 342.61 ng/g and the “Concentration, lung” value (CSS,target = 3000 ng/mL) was 962.76 ± 287.82 ng/g. The “Concentration, muscle” value (CSS,target = 3000 ng/mL) was 342.27 ± 188.70 ng/g, the “Concentration, prostate” value (CSS,target = 3000 ng/mL) was 2433.69 ± 2292.84 ng/g and the “Concentration, small intestine” value (CSS,target = 3000 ng/mL) was 741.67 ± 507.55 ng/g. For the same compound, the “Concentration, spleen” value (CSS,target = 3000 ng/mL) was 541.13 ± 52.33 ng/g, the “Concentration, stomach” value (CSS,target = 3000 ng/mL) was 276.46 ± 95.71 ng/g and the “Concentration, testis” value (CSS,target = 3000 ng/mL) was 504.17 ± 122.39 ng/g. The “Tissue to plasma coefficient (KP), fat” value (CSS,target = 3000 ng/mL) was 0.11 ± 0.02, the “Tissue to plasma coefficient (KP), heart” value (CSS,target = 3000 ng/mL) was 0.23 ± 0.07 and the “Tissue to plasma coefficient (KP), kidney” value (CSS,target = 3000 ng/mL) was 2.56 ± 0.29. For the same compound, the “Tissue to plasma coefficient (KP), liver” value (CSS,target = 3000 ng/mL) was 0.33 ± 0.11, the “Tissue to plasma coefficient (KP), lung” value (CSS,target = 3000 ng/mL) was 0.34 ± 0.10 and the “Tissue to plasma coefficient (KP), muscle” value (CSS,target = 3000 ng/mL) was 0.12 ± 0.07. For the same compound, the “Tissue to plasma coefficient (KP), prostate” value (CSS,target = 3000 ng/mL) was 0.86 ± 0.82, the “Tissue to plasma coefficient (KP), small intestine” value (CSS,target = 3000 ng/mL) was 0.26 ± 0.18 and the “Tissue to plasma coefficient (KP), spleen” value (CSS,target = 3000 ng/mL) was 0.19 ± 0.02. For the same compound, the “Tissue to plasma coefficient (KP), stomach” value (CSS,target = 3000 ng/mL) was 0.10 ± 0.04, the “Tissue to plasma coefficient (KP), testis” value (CSS,target = 3000 ng/mL) was 0.18 ± 0.04 and the “Concentration, plasma” value (CSS,target = 3000 ng/mL, LD 0.60 mg/kg, infusion 1.82 mg/h/kg) was 2845.62 ± 111.43 ng/mL. The “Concentration, brain” value (CSS,target = 6000 ng/mL) was “BLOQ”, the “Concentration, fat” value (CSS,target = 6000 ng/mL) was 406.59 ± 77.17 ng/g and the “Concentration, heart” value (CSS,target = 6000 ng/mL) was 737.57 ± 453.10 ng/g. The “Concentration, kidney” value (CSS,target = 6000 ng/mL) was 14,455.60 ± 1272.17 ng/g, the “Concentration, liver” value (CSS,target = 6000 ng/mL) was 1881.97 ± 267.48 ng/g and the “Concentration, lung” value (CSS,target = 6000 ng/mL) was 1480.52 ± 464.64 ng/g. For the same compound, the “Concentration, muscle” value (CSS,target = 6000 ng/mL) was 621.78 ± 419.81 ng/g, the “Concentration, prostate” value (CSS,target = 6000 ng/mL) was 8550.82 ± 7322.84 ng/g and the “Concentration, small intestine” value (CSS,target = 6000 ng/mL) was 1636.21 ± 1273.92 ng/g. For the same compound, the “Concentration, spleen” value (CSS,target = 6000 ng/mL) was 932.03 ± 368.50 ng/g, the “Concentration, stomach” value (CSS,target = 6000 ng/mL) was 612.39 ± 161.18 ng/g and the “Concentration, testis” value (CSS,target = 6000 ng/mL) was 877.83 ± 252.52 ng/g. For the same compound, the “Tissue to plasma coefficient (KP), fat” value (CSS,target = 6000 ng/mL) was 0.07 ± 0.02, the “Tissue to plasma coefficient (KP), heart” value (CSS,target = 6000 ng/mL) was 0.13 ± 0.08 and the “Tissue to plasma coefficient (KP), kidney” value (CSS,target = 6000 ng/mL) was 2.61 ± 0.47. For the same compound, the “Tissue to plasma coefficient (KP), liver” value (CSS,target = 6000 ng/mL) was 0.34 ± 0.05, the “Tissue to plasma coefficient (KP), lung” value (CSS,target = 6000 ng/mL) was 0.26 ± 0.09 and the “Tissue to plasma coefficient (KP), muscle” value (CSS,target = 6000 ng/mL) was 0.11 ± 0.07. The “Tissue to plasma coefficient (KP), prostate” value (CSS,target = 6000 ng/mL) was 1.54 ± 1.33, the “Tissue to plasma coefficient (KP), small intestine” value (CSS,target = 6000 ng/mL) was 0.29 ± 0.23 and the “Tissue to plasma coefficient (KP), spleen” value (CSS,target = 6000 ng/mL) was 0.17 ± 0.08. For the same compound, the “Tissue to plasma coefficient (KP), stomach” value (CSS,target = 6000 ng/mL) was 0.11 ± 0.04, the “Tissue to plasma coefficient (KP), testis” value (CSS,target = 6000 ng/mL) was 0.15 ± 0.04 and the “Concentration, plasma” value (CSS,target = 6000 ng/mL, LD 1.20 mg/kg, infusion 3.65 mg/h/kg) was 5713.2 ± 523.23 ng/mL. The “plasma concentration at steady state” value (LD 0.60 mg/kg, infusion rate 1.82 mg/h/kg) was “approximately 3,000 ng/mL”, the “plasma concentration at steady state” value (LD 1.20 mg/kg, infusion rate 3.65 mg/h/kg) was ~6,000 ng/mL and the “detection in the brain” value (steady state after i.v. infusion) was “not detected”. The “average KP, kidneys” value [1] was 2.58, the “average KP, prostate” value [1] was 1.20 and the “average KP, other tissues” value (steady state, tissues other than kidneys and prostate) was “less than 0.34”.
